Laboratory results taken from US7803769B2 (priority 2006, dated 2010).
Bridge positions count the residues as written; N and C are the ends. Square brackets hold non-standard residues; d marks the D form. Ends that are not written are not given here. Peptide text beside a SMILES is read from it. 1Nal = N[C@@H](Cc1cccc2ccccc12)C(=O)O

Legend:
[1] = tested on: thapsigargin-induced IL-2 production in human whole blood
human Kv1.3 (CHO) = target: T1, human Kv1.3 (CHO) (Homo sapiens, UniProt P22001); test: cell-based
T1 construct: expressed in transfected cells
T1 sequence (P22001 whole entry): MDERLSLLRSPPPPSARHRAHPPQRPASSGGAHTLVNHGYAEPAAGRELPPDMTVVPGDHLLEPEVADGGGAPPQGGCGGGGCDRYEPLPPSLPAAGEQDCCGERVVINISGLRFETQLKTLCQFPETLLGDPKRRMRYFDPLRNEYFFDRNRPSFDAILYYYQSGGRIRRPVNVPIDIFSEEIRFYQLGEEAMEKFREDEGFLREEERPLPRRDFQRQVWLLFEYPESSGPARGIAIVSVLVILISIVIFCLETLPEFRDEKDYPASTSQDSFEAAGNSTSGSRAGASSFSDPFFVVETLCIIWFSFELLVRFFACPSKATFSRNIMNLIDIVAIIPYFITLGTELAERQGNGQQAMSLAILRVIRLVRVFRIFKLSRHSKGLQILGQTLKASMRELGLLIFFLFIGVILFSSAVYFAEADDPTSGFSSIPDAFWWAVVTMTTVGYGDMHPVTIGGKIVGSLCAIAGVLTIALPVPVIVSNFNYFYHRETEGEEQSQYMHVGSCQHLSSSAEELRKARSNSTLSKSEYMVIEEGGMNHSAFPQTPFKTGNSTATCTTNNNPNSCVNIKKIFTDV

human Kv1.1 (HEK293) = target: T2, human Kv1.1 (HEK293) (Homo sapiens, UniProt Q09470); test: cell-based
T2 construct: expressed in transfected cells; host or cells: HEK293
T2 sequence (Q09470 whole entry): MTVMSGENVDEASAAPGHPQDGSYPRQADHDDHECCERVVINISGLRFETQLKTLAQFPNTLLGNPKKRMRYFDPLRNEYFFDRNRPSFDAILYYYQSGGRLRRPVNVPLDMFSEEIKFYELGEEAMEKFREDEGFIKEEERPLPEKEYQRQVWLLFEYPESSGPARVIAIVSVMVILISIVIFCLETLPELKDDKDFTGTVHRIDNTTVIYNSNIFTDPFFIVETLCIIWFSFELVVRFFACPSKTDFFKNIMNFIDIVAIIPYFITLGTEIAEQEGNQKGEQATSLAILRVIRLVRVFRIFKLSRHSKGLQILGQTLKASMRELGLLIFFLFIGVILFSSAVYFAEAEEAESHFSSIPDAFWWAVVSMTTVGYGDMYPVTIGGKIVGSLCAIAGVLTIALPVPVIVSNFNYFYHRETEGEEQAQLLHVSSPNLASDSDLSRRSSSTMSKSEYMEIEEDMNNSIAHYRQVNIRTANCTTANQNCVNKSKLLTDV

human Kv1.3 channel = human Kv1.3 channel (Homo sapiens, UniProt P22001); assay type: cell-based
Chain of human Kv1.3 channel (P22001 whole entry): as the sequence (P22001 whole entry) above

| Molecule | whole blood cytokine response (IL-2 and IFNg), blockade in words [1] | IC50 (human Kv1.3 (CHO)) | IC50 (human Kv1.1 (HEK293)) | also measured |
| --- | --- | --- | --- | --- |
| CC[C@H](C)[C@@H]1NC(=O)[C@H](CCCCN)NC(=O)[C@@H](NC(=O)[C@H](CCCCN)NC(=O)[C@@H](NC(=O)[C@H](CC(N)=O)NC(=O)[C@@H](NC(=O)[C@@H](NC(=O)[C@@H](NC(=O)CN)C(C)C)[C@@H](C)CC)[C@@H](C)CC)C(C)C)CSSC[C@@H]2NC(=O)[C@H](CCCCN)NC(=O)CNC(=O)[C@H](Cc3ccccc3)NC(=O)[C@H](CCCNC(=N)N)NC(=O)[C@H](CCSC)NC(=O)CNC(=O)[C@H](C)NC(=O)[C@H](CCCCN)NC(=O)[C@H](CCCCN)NC(=O)[C@@H]3CSSC[C@@H](C(=O)N[C@H](C(=O)N4CCC[C@H]4C(=O)N[C@@H](CCCCN)C(=O)O)[C@@H](C)O)NC(=O)[C@H](Cc4c[nH]cn4)NC(=O)[C@H](CSSC[C@H](NC(=O)[C@H](CCC(N)=O)NC(=O)[C@H](CCCNC(=N)N)NC(=O)[C@H](CO)NC1=O)C(=O)N[C@@H](CC(C)C)C(=O)N[C@@H](CCC(=O)O)C(=O)N1CCC[C@H]1C(=O)N3)NC(=O)[C@H](CCCCN)NC(=O)CNC(=O)[C@H](CC(N)=O)NC(=O)[C@H](C)NC2=O [OSK1[Ala-29]] (H-GVIINVKCKISRQCLEPCKKAGMRFGKCANGKCHCTPK-OH; disulfide 8-28, 14-33, 18-35) | several orders of magnitude more potent |  |  |  |
| CC[C@H](C)[C@@H]1NC(=O)[C@H](CCCCN)NC(=O)[C@@H](NC(=O)[C@H](CCCCN)NC(=O)[C@@H](NC(=O)[C@H](CC(N)=O)NC(=O)[C@@H](NC(=O)[C@@H](NC(=O)[C@@H](NC(=O)CN)C(C)C)[C@@H](C)CC)[C@@H](C)CC)C(C)C)CSSC[C@@H]2NC(=O)[C@H](CCCCN)NC(=O)CNC(=O)[C@H](Cc3ccccc3)NC(=O)[C@H](CCCNC(=N)N)NC(=O)[C@H](CCSC)NC(=O)CNC(=O)[C@H](C)NC(=O)[C@H](CCCCN)NC(=O)[C@H](CCCCN)NC(=O)[C@@H]3CSSC[C@@H](C(=O)N[C@H](C(=O)N4CCC[C@H]4C(=O)N[C@@H](CCCCN)C(=O)O)[C@@H](C)O)NC(=O)[C@H](Cc4c[nH]cn4)NC(=O)[C@H](CSSC[C@H](NC(=O)[C@H](Cc4cccc5ccccc45)NC(=O)[C@H](CCCNC(=N)N)NC(=O)[C@H](CO)NC1=O)C(=O)N[C@@H](CC(C)C)C(=O)N[C@@H](CCC(=O)O)C(=O)N1CCC[C@H]1C(=O)N3)NC(=O)[C@H](CCCCN)NC(=O)CNC(=O)[C@H](CC(N)=O)NC(=O)[C@H](CCSC)NC2=O [Q13Nal] (H-GVIINVKCKISR[1Nal]CLEPCKKAGMRFGKCMNGKCHCTPK-OH; disulfide 8-28, 14-33, 18-35) |  | 13.4 pM | < 1.52 pM |  |
| CC[C@H](C)[C@H](NC(=O)[C@H](C)NC(=O)CN)C(=O)N[C@H](C(=O)N[C@@H](CC(N)=O)C(=O)N[C@H](C(=O)N[C@@H](CCCCN)C(=O)N[C@H]1CSSC[C@@H]2NC(=O)[C@H](CCCCN)NC(=O)CNC(=O)[C@H](Cc3ccccc3)NC(=O)[C@H](CCCNC(=N)N)NC(=O)[C@H](CCSC)NC(=O)CNC(=O)[C@H](C)NC(=O)[C@H](CCCCN)NC(=O)[C@H](CCCCN)NC(=O)[C@@H]3CSSC[C@@H](C(=O)N[C@H](C(=O)N4CCC[C@H]4C(=O)N[C@@H](CCCCN)C(=O)O)[C@@H](C)O)NC(=O)[C@H](Cc4c[nH]cn4)NC(=O)[C@H](CSSC[C@H](NC(=O)[C@H](CCC(N)=O)NC(=O)[C@H](CCCNC(=N)N)NC(=O)[C@H](CO)NC(=O)[C@H]([C@@H](C)CC)NC(=O)[C@H](CCCCN)NC1=O)C(=O)N[C@@H](CC(C)C)C(=O)N[C@@H](CCC(=O)O)C(=O)N1CCC[C@H]1C(=O)N3)NC(=O)[C@H](CCCCN)NC(=O)CNC(=O)[C@H](CC(N)=O)NC(=O)[C@H](CCSC)NC2=O)C(C)C)[C@@H](C)CC [V2A] (H-GAIINVKCKISRQCLEPCKKAGMRFGKCMNGKCHCTPK-OH; disulfide 8-28, 14-33, 18-35) |  | 81.8 pM | 9.94 pM |  |
| CC[C@H](C)[C@@H]1NC(=O)[C@H](CCCCN)NC(=O)[C@@H](NC(=O)[C@H](CCCCN)NC(=O)[C@@H](NC(=O)[C@H](CC(N)=O)NC(=O)[C@@H](NC(=O)[C@@H](NC(=O)[C@H](Cc2cccc3ccccc23)NC(=O)CN)[C@@H](C)CC)[C@@H](C)CC)C(C)C)CSSC[C@@H]2NC(=O)[C@H](CCCCN)NC(=O)CNC(=O)[C@H](Cc3ccccc3)NC(=O)[C@H](CCCNC(=N)N)NC(=O)[C@H](CCSC)NC(=O)CNC(=O)[C@H](C)NC(=O)[C@H](CCCCN)NC(=O)[C@H](CCCCN)NC(=O)[C@@H]3CSSC[C@@H](C(=O)N[C@H](C(=O)N4CCC[C@H]4C(=O)N[C@@H](CCCCN)C(=O)O)[C@@H](C)O)NC(=O)[C@H](Cc4c[nH]cn4)NC(=O)[C@H](CSSC[C@H](NC(=O)[C@H](CCC(N)=O)NC(=O)[C@H](CCCNC(=N)N)NC(=O)[C@H](CO)NC1=O)C(=O)N[C@@H](CC(C)C)C(=O)N[C@@H](CCC(=O)O)C(=O)N1CCC[C@H]1C(=O)N3)NC(=O)[C@H](CCCCN)NC(=O)CNC(=O)[C@H](CC(N)=O)NC(=O)[C@H](CCSC)NC2=O [V2Nal] (H-G[1Nal]IINVKCKISRQCLEPCKKAGMRFGKCMNGKCHCTPK-OH; disulfide 8-28, 14-33, 18-35) |  | 11.6 pM | 2.46 pM |  |
| CC[C@H](C)[C@@H]1NC(=O)[C@H](CCCCN)NC(=O)[C@@H](NC(=O)[C@H](CCCCN)NC(=O)[C@H](Cc2cccc3ccccc23)NC(=O)[C@H](CC(N)=O)NC(=O)[C@@H](NC(=O)[C@@H](NC(=O)[C@@H](NC(=O)CN)C(C)C)[C@@H](C)CC)[C@@H](C)CC)CSSC[C@@H]2NC(=O)[C@H](CCCCN)NC(=O)CNC(=O)[C@H](Cc3ccccc3)NC(=O)[C@H](CCCNC(=N)N)NC(=O)[C@H](CCSC)NC(=O)CNC(=O)[C@H](C)NC(=O)[C@H](CCCCN)NC(=O)[C@H](CCCCN)NC(=O)[C@@H]3CSSC[C@@H](C(=O)N[C@H](C(=O)N4CCC[C@H]4C(=O)N[C@@H](CCCCN)C(=O)O)[C@@H](C)O)NC(=O)[C@H](Cc4c[nH]cn4)NC(=O)[C@H](CSSC[C@H](NC(=O)[C@H](CCC(N)=O)NC(=O)[C@H](CCCNC(=N)N)NC(=O)[C@H](CO)NC1=O)C(=O)N[C@@H](CC(C)C)C(=O)N[C@@H](CCC(=O)O)C(=O)N1CCC[C@H]1C(=O)N3)NC(=O)[C@H](CCCCN)NC(=O)CNC(=O)[C@H](CC(N)=O)NC(=O)[C@H](CCSC)NC2=O [V6Nal] (H-GVIIN[1Nal]KCKISRQCLEPCKKAGMRFGKCMNGKCHCTPK-OH; disulfide 8-28, 14-33, 18-35) |  | 21 pM | < 1.52 pM |  |
| CC[C@H](C)[C@@H]1NC(=O)[C@H](CCCCN)NC(=O)[C@@H](NC(=O)[C@H](CCCCN)NC(=O)[C@H](CCCNC(=N)N)NC(=O)[C@H](CC(N)=O)NC(=O)[C@@H](NC(=O)[C@@H](NC(=O)[C@@H](NC(=O)CN)C(C)C)[C@@H](C)CC)[C@@H](C)CC)CSSC[C@@H]2NC(=O)[C@H](CCCCN)NC(=O)CNC(=O)[C@H](Cc3ccccc3)NC(=O)[C@H](CCCNC(=N)N)NC(=O)[C@H](CCSC)NC(=O)CNC(=O)[C@H](C)NC(=O)[C@H](CCCCN)NC(=O)[C@H](CCCCN)NC(=O)[C@@H]3CSSC[C@@H](C(=O)N[C@H](C(=O)N4CCC[C@H]4C(=O)N[C@@H](CCCCN)C(=O)O)[C@@H](C)O)NC(=O)[C@H](Cc4c[nH]cn4)NC(=O)[C@H](CSSC[C@H](NC(=O)[C@H](CCC(N)=O)NC(=O)[C@H](CCCNC(=N)N)NC(=O)[C@H](CO)NC1=O)C(=O)N[C@@H](CC(C)C)C(=O)N[C@@H](CCC(=O)O)C(=O)N1CCC[C@H]1C(=O)N3)NC(=O)[C@H](CCCCN)NC(=O)CNC(=O)[C@H](CC(N)=O)NC(=O)[C@H](CCSC)NC2=O [V6R] (H-GVIINRKCKISRQCLEPCKKAGMRFGKCMNGKCHCTPK-OH; disulfide 8-28, 14-33, 18-35) |  | 8.65 pM | 2.4 pM |  |
| Fc-L10-OSK1[K7S,E16K,K20D]: Fc-L10-OSK1 with K7S, E16K and K20D substitutions |  |  |  | block of human Kv1.3 current (in words) (human Kv1.3 channel): significant decrease in potency as well as selectivity; fold less potent than the synthetic OSK1 toxin peptide (Kv1.3) (human Kv1.3 channel): approximately 21 fold |
| Fc-L10-OSK1[K7S]: Fc-L10-OSK1 with lysine to serine at position 7 |  |  |  | difference in Kv1.3 potency compared to Fc-L10-OSK1 (human Kv1.3 channel): 2 fold; fold less potent than the synthetic OSK1 toxin peptide (Kv1.3) (human Kv1.3 channel): approximately 10 fold |
| SEQ ID No: 4989: OSK1 analog without beta strand 1 (des 1-7), Table 42 (CKISRQCLKPCKDAGMRFGKCMNGKCHC-NH2; ends and bridges not checked) | still retain activity in blocking inflammation |  |  |  |
| FcLoop-L2-OsK1-L2: OsK1 inserted into the human IgG1 Fc-loop with 2-Gly linkers on both sides (protein, Definition of Artificial Sequence: Synthetic protein) MDKTHTCPPCPAPELLGGPSVFLFPPKPKDTLMISRTPEVTCVVVDVSHEDPEVKFNWYVDGVEVHNAKTKPREEQYNSTYRVVSVLTVLHQDWLNGKEYKCKVSNKALPAPIEKTISKAKGQPREPQVYTLPPSRDELGGGVIINVKCKISRQCLEPCKKAGMRFGKCMNGKCHCTPKGGTKNQVSLTCLVKGFYPSDIAVEWESNGQPENNYKTTPPVLDSDGSFFLYSKLTVDKSRWQQGNVFSCSVMHEALHNHYTQKSLSLSPGK | potent blockade of the whole blood cytokine response in this assay, with IC50 values in the pM range |  |  |  |
| FcLoop-L2-ShK-L2: ShK inserted into the human IgG1 Fc-loop with 2-Gly linkers on both sides (protein, Definition of Artificial Sequence: Synthetic protein) MDKTHTCPPCPAPELLGGPSVFLFPPKPKDTLMISRTPEVTCVVVDVSHEDPEVKFNWYVDGVEVHNAKTKPREEQYNSTYRVVSVLTVLHQDWLNGKEYKCKVSNKALPAPIEKTISKAKGQPREPQVYTLPPSRDELGGRSCIDTIPKSRCTAFQCKHSMKYRLSFCRKTCGTCGGTKNQVSLTCLVKGFYPSDIAVEWESNGQPENNYKTTPPVLDSDGSFFLYSKLTVDKSRWQQGNVFSCSVMHEALHNHYTQKSLSLSPGK | potent blockade of the whole blood cytokine response in this assay, with IC50 values in the pM range |  |  |  |
